Some results are limits rather than exact numbers.

The target in the first experiment is T1, full length active recombinant SYK enzyme (Homo sapiens, UniProt P43405).
T1 construct: full length active recombinant SYK enzyme (Millipore, Calif.); purchased Millipore
The experiment can be described thus: Inhibition of Syk tyrosine phosphorylation activity (LANCE TR-FRET). Format: biochemical. The note with it: Table 3; 1 nM SYK, 100 μM ATP; read-out: Syk IC50 code. The method, boiled down:
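The reaction is quenched with buffer holding Eu-anti-phosphotyrosine and streptavidin-APC, and detection runs 1 hr at room temperature. TR-FRET is read and IC50s come from non-linear regression.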
Take `NCCOCCNc1nc(Nc2ccc(N3CCC[C@H]3C(N)=O)cc2)nc2[nH]ccc12` [Example 94, (S)-1-(4-(4-(2-(2-aminoethoxy)ethylamino)-7H-pyrrolo[2,3-d]pyrimidin-2-ylamino)phenyl)pyrrolidine-2-carboxamide]: the IC50 (as a rule, the concentration needed to halve the response being measured) was in the range of 100 to 1000 nM.

Regarding `N[C@H]1CC[C@@H](Nc2nc(Nc3ccc4c(c3)CCC(=O)N4)ncc2C2CC2)CC1` [Example 144, 6-(4-((1s,4s)-4-aminocyclohexylamino)-5-cyclopropylpyrimidin-2-ylamino)-3,4-dihydroquinolin-2(1H)-one], the IC50 was in the range of 10 to 100 nM.

With `COC(=O)C(N)C1CCN(c2nc(Nc3ccc4c(c3)CCC(=O)N4)ncc2F)CC1` (centres unmarked) [Example 135, Methyl 2-amino-2-(1-(5-fluoro-2-(2-oxo-1,2,3,4-tetrahydroquinolin-6-ylamino)pyrimidin-4-yl)piperidin-4-yl)acetate], the IC50 was above 1000 nM.

On to `CNc1nc(Nc2ccc3cn[nH]c3c2)nc2[nH]cc(-c3cccnc3)c12` [Example 3, N2-(1H-indazol-6-yl)-N4-methyl-5-(pyridin-3-yl)-7H-pyrrolo[2,3-d]pyrimidine-2,4-diamine], for which the IC50 was 10 to 100 nM.

For `CCOC(=O)CC(N)C1CCN(c2nc(Nc3ccc4c(c3)CCC(=O)N4)ncc2F)CC1` (centres unmarked) [Example 134, Ethyl 3-amino-3-(1-(5-fluoro-2-(2-oxo-1,2,3,4-tetrahydroquinolin-6-ylamino)pyrimidin-4-yl)piperidin-4-yl)propanoate], the IC50 was in the range of 100 to 1000 nM.

For the compound `CN1C(=O)CCc2cc(Nc3nc(NCc4ccccc4)c4c(-c5ccncc5)c[nH]c4n3)ccc21` [Example 114, 6-(4-(benzylamino)-5-(pyridin-4-yl)-7H-pyrrolo[2,3-d]pyrimidin-2-ylamino)-1-methyl-3,4-dihydroquinolin-2(1H)-one], the half-maximal inhibitory concentration (IC50) lay within 100 to 1000 nM.

`c1cc(-c2c[nH]c3nc(Nc4ccc5cn[nH]c5c4)nc(NC4CC4)c23)ccn1` [Example 43, N4-cyclopropyl-N2-(1H-indazol-6-yl)-5-(pyridin-4-yl)-7H-pyrrolo[2,3-d]pyrimidine-2,4-diamine]: the IC50 fell in the range of 100 to 1000 nM.

For the compound `COCCNc1nc(Nc2ccc3cn[nH]c3c2)nc2[nH]ccc12` [Example 89, N^2-(1H-indazol-6-ylamino)-N^4-(2-methoxyethyl)-7H-pyrrolo[2,3-d]pyrimidine-2,4-diamine], the 50% inhibitory concentration (IC50) fell in the range of 100 to 1000 nM.

For `O=C1CCc2cc(Nc3nc(NC4CC4)c4c(-c5ccncc5)c[nH]c4n3)ccc2N1` [Example 48, 6-(4-(cyclopropylamino)-5-(pyridin-4-yl)-7H-pyrrolo[2,3-d]pyrimidin-2-ylamino)-3,4-dihydroquinolin-2(1H)-one], the IC50 is 10 to 100 nM.

In the case of `NC(=O)c1cnc(-[n+]2ccc(-c3ccc(N)cc3)cc2)nc1NC1CC1` [Example 5, 4-(4-aminophenyl)-1-(5-carbamoyl-4-(cyclopropylamino)pyrimidin-2-yl)pyridinium], the IC50 is above 1000 nM.

As for “6-(5-fluoro-4-(3-oxopiperazin-1-yl)pyrimidin-2-ylamino)-3,4-dihydroquinolin-2(1H)-one [Example 123]”, the IC50 was above 1000 nM.

Take `N[C@H]1CC[C@@H](Nc2nc(Nc3ccc4c(c3)CCC(=O)N4)ncc2-c2ccncc2)CC1` [Example 143, 6-(4-((1s,4s)-4-aminocyclohexylamino)-5-(pyridin-4-yl)pyrimidin-2-ylamino)-3,4-dihydroquinolin-2(1H)-one]: the IC50 was above 1000 nM.

As to `O=C(O)CN1C(=O)CCc2cc(Nc3nc(NC4CCC4)c4cc[nH]c4n3)ccc21` [Example 70, 2-(6-(4-(cyclobutyamino)-7H-pyrrolo[2,3-d]pyrimidine-2-ylamino)-2-oxo-3,4-dihydroquinolin-1(2H)-yl)acetic acid], the IC50 is 10 to 100 nM.

The same experiment, now with this note: Table 4; 1 nM SYK, 100 μM ATP; read-out: syk IC50.
`c1cc2c(N3CCCCC3)nc(Nc3ccc(N4CCNCC4)cc3)nc2[nH]1` [Example 19, N-(4-(piperazin-1-yl)phenyl)-4-(piperidin-1-yl)-7H-pyrrolo[2,3-d]pyrimidin-2-amine]: the IC50 was above 1000 nM.
